Measurements: US20210053957A1, “HERBICIDAL COMPOUNDS” (SYNGENTA PARTICIPATIONS AG, priority 2018, published 2021)

Columns and labels:
Test in all cases: Post-emergence efficacy, glasshouse spray test
Format in all cases: in vivo
Conditions in all cases: evaluated after 13 days
Setaia fabei (SETFA) = test system: Setaia fabei (SETFA)
Procedure, shortened: (§1)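 Spray solution: compound dissolved in acetone and IF50 emulsifier/solvent mix to 50 g/l stock, then diluted to test concentration in 0.25% or 1% sodium lauryl ether sulphate + 1% ammonium sulphate. Applied post-emergence to 14-day plants; injury scored 0–100 after 13 days.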

Lolium perenne (LOLPE) = test system: Lolium perenne (LOLPE)
Procedure, shortened: as §1

Eleusine indica (ELEIN) = test system: Eleusine indica (ELEIN)
Procedure, shortened: as §1

[1] = test system: Chenopodium album (CHEAL)
Procedure, shortened: as §1

[2] = test system: Ipomoea hederacea (IPOHE)
Procedure, shortened: as §1

[3] = test system: Euphorbia heterophylla (EPHHL)
Procedure, shortened: as §1

[4] = test system: Digitaria sanguinalis (DIGSA)
Procedure, shortened: as §1

[5] = test system: Echinochloa crus-galli (ECHCG)
Procedure, shortened: as §1

[6] = test system: Amaranthus palmeri (AMAPA)
Procedure, shortened: as §1

[7] = Setaria faberi, post-emergence, 312 h, Application Rate 500 g/Ha, read-out: Control of weed species after post-emergence application, SETFA (100=total damage to plant; 0=no damage to plant)
[8] = Lolium perenne, post-emergence, 312 h, Application Rate 500 g/Ha, read-out: Control of weed species after post-emergence application, LOLPE (100=total damage to plant; 0=no damage to plant)
[9] = Eleusine indica, post-emergence, 312 h, Application Rate 500 g/Ha, read-out: Control of weed species after post-emergence application, ELEIN (100=total damage to plant; 0=no damage to plant)
[10] = Chenopodium album, post-emergence, 312 h, Application Rate 500 g/Ha, read-out: Control of weed species after post-emergence application, CHEAL (100=total damage to plant; 0=no damage to plant)
[11] = Ipomoea hederacea, post-emergence, 312 h, Application Rate 500 g/Ha, read-out: Control of weed species after post-emergence application, IPOHE (100=total damage to plant; 0=no damage to plant)
[12] = Euphorbia heterophylla, post-emergence, 312 h, Application Rate 500 g/Ha, read-out: Control of weed species after post-emergence application, EPHHL (100=total damage to plant; 0=no damage to plant)
[13] = Digitaria sanguinalis, post-emergence, 312 h, Application Rate 500 g/Ha, read-out: Control of weed species after post-emergence application, DIGSA (100=total damage to plant; 0=no damage to plant)
[14] = Echinochloa crus-galli, post-emergence, 312 h, Application Rate 500 g/Ha, read-out: Control of weed species after post-emergence application, ECHCG (100=total damage to plant; 0=no damage to plant)
[15] = Amaranthus palmeri, post-emergence, 312 h, Application Rate 500 g/Ha, read-out: Control of weed species after post-emergence application, AMAPA (100=total damage to plant; 0=no damage to plant)

Compound	pest or weed control at 500 g/ha (Setaia fabei (SETFA); [7]) [%]	pest or weed control at 500 g/ha (Lolium perenne (LOLPE); [8]) [%]	pest or weed control at 500 g/ha (Eleusine indica (ELEIN); [9]) [%]	pest or weed control at 500 g/ha [1, 10] [%]	pest or weed control at 500 g/ha [2, 11] [%]	pest or weed control at 500 g/ha [3, 12] [%]	pest or weed control at 500 g/ha [4, 13] [%]	pest or weed control at 500 g/ha [5, 14] [%]	pest or weed control at 500 g/ha [6, 15] [%]	also measured
CC(C)(C)COS(=O)(=O)CC[n+]1ccc(-c2cocn2)cn1 [Compound A21, 2,2-dimethylpropyl 2-(4-oxazol-4-ylpyridazin-1-ium-1-yl)ethanesulfonate; 2,2,2-trifluoroacetate]	10	0	10	40	10	40	10	10	10	–
CCOC(=O)c1oc(-c2cc[n+](CCC(=O)O)nc2)nc1C [Compound A130]	30	50	80	50	50	100	60	60	100	–
Cn1cnc(-c2cc[n+](CCCS(=O)(=O)[O-])nc2)n1 [Compound A117]	90	40	20	20	30	70	80	70	40	–
CNc1nnc(-c2cc[n+](CCS(=O)(=O)[O-])nc2)s1 [Compound A45]	70	70	70	80	20	90	50	40	100	–
O=C(O)C[n+]1ccc(-c2ncco2)cn1 [Compound A71]	90	80	100	90	60	90	90	100	100	–
Cc1coc(-c2cc[n+](CCCS(=O)(=O)[O-])nc2)n1 [Compound A136]	80	60	60	30	20	70	70	40	70	–
O=S(=O)([O-])CC[n+]1ccc(-c2ncns2)cn1 [Compound A9]	60	30	80	70	80	90	70	60	90	–
Cn1ccc(-c2cc[n+](CCS(=O)(=O)[O-])nc2)n1 [Compound A2]	–	–	–	–	–	–	–	–	–	pest or weed control at 125 g/ha (Setaia fabei (SETFA); Setaria faberi, post-emergence, 312 h, Application Rate 125 g/Ha, read-out: Control of weed species after post-emergence application, SETFA (100=total damage to plant; 0=no damage to plant)): 20%; pest or weed control at 125 g/ha (Lolium perenne (LOLPE); Lolium perenne, post-emergence, 312 h, Application Rate 125 g/Ha, read-out: Control of weed species after post-emergence application, LOLPE (100=total damage to plant; 0=no damage to plant)): 0%; pest or weed control at 125 g/ha (Eleusine indica (ELEIN); Eleusine indica, post-emergence, 312 h, Application Rate 125 g/Ha, read-out: Control of weed species after post-emergence application, ELEIN (100=total damage to plant; 0=no damage to plant)): 10%; pest or weed control at 125 g/ha ([1]; Chenopodium album, post-emergence, 312 h, Application Rate 125 g/Ha, read-out: Control of weed species after post-emergence application, CHEAL (100=total damage to plant; 0=no damage to plant)): 0%; pest or weed control at 125 g/ha ([2]; Ipomoea hederacea, post-emergence, 312 h, Application Rate 125 g/Ha, read-out: Control of weed species after post-emergence application, IPOHE (100=total damage to plant; 0=no damage to plant)): 10%; pest or weed control at 125 g/ha ([3]; Euphorbia heterophylla, post-emergence, 312 h, Application Rate 125 g/Ha, read-out: Control of weed species after post-emergence application, EPHHL (100=total damage to plant; 0=no damage to plant)): 30%; pest or weed control at 125 g/ha ([4]; Digitaria sanguinalis, post-emergence, 312 h, Application Rate 125 g/Ha, read-out: Control of weed species after post-emergence application, DIGSA (100=total damage to plant; 0=no damage to plant)): 20%; pest or weed control at 125 g/ha ([5]; Echinochloa crus-galli, post-emergence, 312 h, Application Rate 125 g/Ha, read-out: Control of weed species after post-emergence application, ECHCG (100=total damage to plant; 0=no damage to plant)): 10%; pest or weed control at 125 g/ha ([6]; Amaranthus palmeri, post-emergence, 312 h, Application Rate 125 g/Ha, read-out: Control of weed species after post-emergence application, AMAPA (100=total damage to plant; 0=no damage to plant)): 0%
O=C(O)CC[n+]1ccc(-c2ccsn2)cn1 [Compound A97]	40	30	70	80	20	50	50	60	100	–
Cn1cnc(-c2cc[n+](CCOS(=O)(=O)[O-])nc2)n1 [Compound A118]	90	40	70	30	30	70	90	90	50	–
Cc1nc(-c2cc[n+](CCS(=O)(=O)[O-])nc2)oc1C [Compound A14]	50	40	70	40	40	50	50	40	100	–
COC(=O)CCC[n+]1ccc(-c2nc(C)co2)cn1 [Compound A128]	90	60	100	20	20	70	90	80	90	–
Cc1coc(-c2cc[n+](CCCC(=O)O)nc2)n1 [Compound A135]	90	40	80	20	10	90	90	90	90	–
COP(=O)(C[n+]1ccc(-c2ncco2)cn1)OC [Compound A94]	–	–	–	–	–	–	–	–	–	Control of weed species after post-emergence application, SETFA (100=total damage to plant; 0=no damage to plant) (Setaia fabei (SETFA); Application Rate 500 g/Ha): 90; Control of weed species after post-emergence application, LOLPE (100=total damage to plant; 0=no damage to plant) (Lolium perenne (LOLPE); Application Rate 500 g/Ha): 40; Control of weed species after post-emergence application, ELEIN (100=total damage to plant; 0=no damage to plant) (Eleusine indica (ELEIN); Application Rate 500 g/Ha): 100; Control of weed species after post-emergence application, CHEAL (100=total damage to plant; 0=no damage to plant) ([1]; Application Rate 500 g/Ha): 90; Control of weed species after post-emergence application, IPOHE (100=total damage to plant; 0=no damage to plant) ([2]; Application Rate 500 g/Ha): 90; Control of weed species after post-emergence application, EPHHL (100=total damage to plant; 0=no damage to plant) ([3]; Application Rate 500 g/Ha): 100; Control of weed species after post-emergence application, DIGSA (100=total damage to plant; 0=no damage to plant) ([4]; Application Rate 500 g/Ha): 100; Control of weed species after post-emergence application, ECHCG (100=total damage to plant; 0=no damage to plant) ([5]; Application Rate 500 g/Ha): 90; Control of weed species after post-emergence application, AMAPA (100=total damage to plant; 0=no damage to plant) ([6]; Application Rate 500 g/Ha): 90
CNC(=O)c1oc(-c2cc[n+](CCC(=O)OC)nc2)nc1C [Compound A137]	30	10	30	10	10	20	50	40	20	–
